The target in assay [1] is T. brucei PKAR-PKAC1 holoenzyme (Trypanosoma brucei, UniProt Q9GU80). The experiment in a line: biochemical. The assay is classed as biochemical. Conditions: for In vitro kinase assay: technical replicates.
Another assay deals with T. brucei BSF cells (WT). The experiment in a line: Alamar blue cell viability assay, wild type.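 Also: trypanosomes seeded at 5×10^3 per ml and grown 72 h with compound, then resazurin 0.5 mM added for 4 h as the viability read-out.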 To be noted: Trypanosoma brucei, 72 h, read-out: IC50 growth WT. A general note: Alamar Blue is a resazurin reagent that responds to reducing activity.
Another assay has as its system intracellular cAMP. The experiment in a line: Cyclic AMP measurement (intracellular cAMP content). The assay is classed as cell-based, Trypanosoma brucei. To be noted: for pmol cAMP / 10^9 cells: independent replicates.
A further assay addresses T. brucei PKA (Trypanosoma brucei brucei, UniProt Q9GU80). The experiment in a line: In vivo PKA reporter assay (VASP Ser-157 phosphorylation, western blot).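 As to % VASP phosphorylation: Phosphorylated VASP as percent of total VASP band signal.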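 As to all read-outs here: T. brucei cells expressing human VASP as heterologous PKA substrate, compound exposure at 37 °C, western blot of phospho (50 kDa) versus unphosphorylated (46 kDa) VASP band.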 The assay is classed as cell-based. To be noted: for EC50: read-out: EC50 in vivo PKA assay, VASP reporter, 15 min treatment, mean ± SD; for effect on in vivo PKA activity (VASP phosphorylation), in words: wild type background; for % VASP phosphorylation: CpdA 10 µM, replicates. For orientation: In a reporter assay the amount or activity of a reporter protein is the signal.

The subject of assay [2] is T. brucei ∆pkar/∆pkar (pkar KO) cells. The experiment in a line: microbe, parasite or virus in culture. Type of assay: cell-based, Trypanosoma brucei. To be noted: Trypanosoma brucei, 72 h, read-out: IC50 growth pkar KO.
In another assay the target is T. brucei PKAR(199–499) (Trypanosoma brucei, UniProt Q9GU80). The experiment in a line: biochemical. The assay is classed as binding. Details: Thermodynamics (ITC) -TΔS / Thermodynamics (ITC) ΔG / Thermodynamics (ITC) ΔH: unit: kcal/mol.
T. brucei PKAR(199–499), sequence (Q9GU80 entry or part of it): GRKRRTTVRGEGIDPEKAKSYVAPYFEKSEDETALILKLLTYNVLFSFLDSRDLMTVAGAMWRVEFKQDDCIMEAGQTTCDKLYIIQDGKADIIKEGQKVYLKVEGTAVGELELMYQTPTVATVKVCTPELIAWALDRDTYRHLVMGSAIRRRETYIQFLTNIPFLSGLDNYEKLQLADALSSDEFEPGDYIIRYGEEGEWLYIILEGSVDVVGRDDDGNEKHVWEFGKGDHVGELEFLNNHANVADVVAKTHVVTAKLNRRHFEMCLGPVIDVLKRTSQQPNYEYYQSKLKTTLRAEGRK
The target in another assay is T1, human PKARIα (Homo sapiens, UniProt P10644).
T1 construct: The full length ORFs (amplified with primers introducing the respective); 6xHis followed by TEV site (N); made in house; host or cells: E. coli Rosetta D3
T1 sequence (P10644 whole entry): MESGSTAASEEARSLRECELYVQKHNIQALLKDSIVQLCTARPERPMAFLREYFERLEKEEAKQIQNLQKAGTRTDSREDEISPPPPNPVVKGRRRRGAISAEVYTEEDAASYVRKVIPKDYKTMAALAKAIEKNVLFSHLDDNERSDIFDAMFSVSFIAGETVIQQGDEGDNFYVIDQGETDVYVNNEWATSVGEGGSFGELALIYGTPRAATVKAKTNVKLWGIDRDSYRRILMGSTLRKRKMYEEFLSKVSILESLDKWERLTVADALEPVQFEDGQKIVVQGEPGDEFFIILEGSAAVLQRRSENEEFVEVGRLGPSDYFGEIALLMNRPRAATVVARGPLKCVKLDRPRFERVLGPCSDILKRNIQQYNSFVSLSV
The experiment in a line: Binding by isothermal titration calorimetry (ITC). Background: ITC needs no label: the signal is the heat of the interaction.

In assay [3] the test system is cAMP release into the medium. The experiment in a line: Fraction of cAMP in cell supernatant versus total cell lysate. To be noted: CpdA treatment 10 µM, 15 min.

The structures appear in SMILES notation. Values joined by “and” are separate entries in the source; they are usually repeats but may differ in a detail not shown here. Identical values can stand only once. “Also recorded” adds a separate entry of the source.

T. brucei PKA, sequence (Q38DS1 entry or part of it): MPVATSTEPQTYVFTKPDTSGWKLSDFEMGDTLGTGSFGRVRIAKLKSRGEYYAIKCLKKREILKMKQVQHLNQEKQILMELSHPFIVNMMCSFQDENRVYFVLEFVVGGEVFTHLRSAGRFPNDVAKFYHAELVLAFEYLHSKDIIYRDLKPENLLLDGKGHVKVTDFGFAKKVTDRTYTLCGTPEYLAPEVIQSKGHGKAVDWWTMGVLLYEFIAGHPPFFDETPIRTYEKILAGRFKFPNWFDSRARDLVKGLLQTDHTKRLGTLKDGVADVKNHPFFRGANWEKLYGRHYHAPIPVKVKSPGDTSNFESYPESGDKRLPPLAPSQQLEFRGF
T. brucei PKA, sequence (Q38DR5 entry or part of it, further chain): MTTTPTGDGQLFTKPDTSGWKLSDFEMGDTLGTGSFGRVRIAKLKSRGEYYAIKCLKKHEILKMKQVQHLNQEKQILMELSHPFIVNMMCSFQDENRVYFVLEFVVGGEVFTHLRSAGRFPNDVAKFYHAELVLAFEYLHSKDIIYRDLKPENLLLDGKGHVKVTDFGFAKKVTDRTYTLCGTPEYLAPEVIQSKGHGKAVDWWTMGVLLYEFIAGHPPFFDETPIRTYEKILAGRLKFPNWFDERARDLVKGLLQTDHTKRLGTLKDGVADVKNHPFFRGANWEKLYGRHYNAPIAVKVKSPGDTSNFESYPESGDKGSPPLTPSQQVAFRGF
T. brucei PKA, sequence (Q9GU80 entry or part of it): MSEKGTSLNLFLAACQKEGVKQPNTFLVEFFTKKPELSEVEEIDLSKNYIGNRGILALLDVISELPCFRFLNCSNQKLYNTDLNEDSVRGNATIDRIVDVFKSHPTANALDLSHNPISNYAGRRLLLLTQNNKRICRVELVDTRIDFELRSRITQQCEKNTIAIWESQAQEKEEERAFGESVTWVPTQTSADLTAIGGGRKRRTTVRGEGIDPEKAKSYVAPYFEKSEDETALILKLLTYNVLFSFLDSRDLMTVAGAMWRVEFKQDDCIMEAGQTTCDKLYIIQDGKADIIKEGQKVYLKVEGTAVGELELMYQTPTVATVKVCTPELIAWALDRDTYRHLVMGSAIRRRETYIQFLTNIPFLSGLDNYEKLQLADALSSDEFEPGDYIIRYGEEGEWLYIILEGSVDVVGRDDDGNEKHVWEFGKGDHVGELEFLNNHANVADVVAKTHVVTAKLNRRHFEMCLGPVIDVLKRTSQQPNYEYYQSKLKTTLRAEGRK
T. brucei PKAR-PKAC1 holoenzyme, sequence (Q38DR5 entry or part of it): as the sequence (Q38DR5 entry or part of it, further chain) above

Consider `OCCN(CCO)c1nc(N2CCCCC2)c2nc(N(CCO)CCO)nc(N3CCCCC3)c2n1` [Dipyridamole], for which the “effect in the in vitro kinase assay, in words” value in assay [1] is listed as “did not have any effect; also recorded: No effect”. The IC50 with T. brucei BSF cells (WT) is 9900 ± 1000 nM; in assay [2] it was 16300 ± 1800 nM. Besides, the “change of intracellular cAMP content, in words” value with intracellular cAMP (100 µM) is “moderate increase”. For the same compound, the “pmol cAMP / 10^9 cells” value in the assay on intracellular cAMP (100 µM, 15 min, listed as Dip) was 61.8873 pmol cAMP / 10^9 cells and 63.0147 pmol cAMP / 10^9 cells and 44.8294 pmol cAMP / 10^9 cells and 64.5236 pmol cAMP / 10^9 cells and 80.946 pmol cAMP / 10^9 cells and 55.0958 pmol cAMP / 10^9 cells; in the assay on intracellular cAMP (100 µM, 90 min, listed as Dip), 47.769 pmol cAMP / 10^9 cells and 56.3468 pmol cAMP / 10^9 cells and 59.8493 pmol cAMP / 10^9 cells and 40.4717 pmol cAMP / 10^9 cells and 46.5418 pmol cAMP / 10^9 cells and 46.5962 pmol cAMP / 10^9 cells. Besides, at T. brucei PKA (homozygous deletion of PKAR), the “induction of VASP phosphorylation in pkar knock out, in words” value was “no induction”. Besides, at T. brucei PKA, the EC50 was 22400 ± 4200 nM. At T. brucei PKA, the “effect on in vivo PKA activity (VASP phosphorylation), in words” value was “dose- and time-dependent induction”.

On to `Nc1ncnc2c1c(I)cn2[C@@H]1O[C@H](CO)[C@@H](O)[C@H]1O` [5-I-Tu, 7-Iodo-7-deazaadenosine], for which the values for the 50% effective concentration (EC50) (in assay [1]; on T. brucei PKA) were 203 ± 79 nM and 390 ± 20 nM, respectively. Moreover, the “In vitro kinase assay” value was 0.15 U/ml and 0.13 U/ml in assay [1] (0.001 µM); 0.22 U/ml and 0.25 U/ml in assay [1] (0.05 µM); 0.4 U/ml and 0.36 U/ml in assay [1] (0.1 µM); 0.45 U/ml in assay [1] (0.2 µM); 0.75 U/ml and 0.61 U/ml in assay [1] (0.39 µM); 0.77 U/ml and 0.8 U/ml in assay [1] (0.78 µM). In addition, the “In vitro kinase assay” value in assay [1] (1.56 µM) is 0.79 U/ml and 0.91 U/ml; in assay [1] (3.13 µM) it was 0.81 U/ml and 0.96 U/ml. Moreover, the half-inhibitory concentration (IC50) amounted to 330 ± 38 nM in the assay on T. brucei BSF cells (WT) and 346 ± 41 nM in assay [2]. The compound also registered a dissociation constant (Kd) on T. brucei PKAR(199–499) of 32 ± 9 nM. Besides, at T. brucei PKAR(199–499) (independent replicates), the “Thermodynamics (ITC) -TΔS” value is 6.36 and 3.65 and 4.67. At T. brucei PKAR(199–499) (independent replicates), the “Thermodynamics (ITC) ΔG” value was -10.1 and -10.5. Also, the “Thermodynamics (ITC) ΔH” value at T. brucei PKAR(199–499) (independent replicates) was -16.5 and -14.1 and -14.8. The “binding to purified human PKARIα, in words” value on human PKARIα is recorded as “did not bind”.

For `COc1ccc(C2=NN(C3CCCCCC3)C(=O)[C@@H]3CC=CC[C@H]23)cc1OCCCCOc1ccc(-c2nn[nH]n2)cc1` [CpdA], the “% cAMP, supernatant, mean” value in assay [3] (mean of technical replicates) came to 3.201%. Further, the “nM cAMP, supernatant” value in assay [3] (technical replicates) is 74.7051 nM and 46.4145 nM. For the same compound, in assay [3] (total cAMP content set to 100%), the “% cAMP, supernatant” value is 3.949% and 2.454%. In the assay on intracellular cAMP (10 µM, 15 min), the “increase of intracellular cAMP content” value is given as “up to 600 fold”. In the assay with intracellular cAMP (10 µM, 15 min), the “pmol cAMP / 10^9 cells” value is 7046.18 pmol cAMP / 10^9 cells and 6980.91 pmol cAMP / 10^9 cells and 7465.44 pmol cAMP / 10^9 cells and 6294.38 pmol cAMP / 10^9 cells and 9321.55 pmol cAMP / 10^9 cells and 2818.14 pmol cAMP / 10^9 cells. Moreover, in the assay with intracellular cAMP (CpdA treatment 10 µM, 15 min, total cAMP content set to 100%, mean of technical replicates), the “% cAMP, total, mean” value turned out to be 94.1035%. Further, the “% cAMP, total” value in the assay with intracellular cAMP (CpdA treatment 10 µM, 15 min, total cAMP content set to 100%, technical replicates) was 100% and 88.2071%. For the same compound, the “nM cAMP, total” value in the assay on intracellular cAMP (CpdA treatment 10 µM, 15 min, total, technical replicates) was 1891.66 nM and 1668.58 nM. Besides, the “% VASP phosphorylation” value at T. brucei PKA (0 min) is 37.2015% and 33.1548% and 30.9406%; on T. brucei PKA (5 min), 28.9269% and 25.7882% and 23.4179%; at T. brucei PKA (10 min), 28.8598% and 22.1225% and 21.1026%; on T. brucei PKA (15 min) it was 26.7433% and 23.5931% and 18.9766%. At T. brucei PKA, the “effect on in vivo PKA activity (VASP phosphorylation), in words” value was “did not elicit any change”.

By IC50 is commonly meant the concentration that inhibits the measured activity by half. By EC50 is commonly meant the concentration giving half of the maximal effect. Broadly, the Kd is the constant that tells how readily two partners part at equilibrium.

The values are drawn from article PMC6440977, “Nucleoside analogue activators of cyclic AMP-independent protein kinase A of Trypanosoma” (Nature Communications, 2019).
